# Laboratory results taken from patent US6896895B2, “Carotenoid esters, carotenoid-enriched feeds, and methods of pigmenting foods and foodstuffs” (DSM IP Assets B.V., priority 2000, dated 2005).
# Assays:
# [1] = tested on: skin and shanks of broilers; assay: Reflectance colorimetry and visual classification of skin and shanks of broilers; type: in vivo, broiler chickens (Ross 308, Ross 508); parameters: key to Shanks Visual Classification / Skin Visual Classification: −; (+); +; ++ = good color; o = orange; conditions: for Shanks Chroma C*ab % of Controls / Shanks Color Hue h*ab % of Controls / Skin Chroma C*ab % of Controls / Skin Color Hue h*ab % of Controls / Shanks Chroma C*ab Value / Shanks Color Hue h*ab Value / Shanks Visual Classification / Skin Chroma C*ab Value / Skin Color Hue h*ab Value / Skin Visual Classification: dry carcasses
# Method in brief: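 Ross broilers were fed a low-carotenoid basal diet (<2 mg xanthophylls/kg), then received pigment-supplemented diet for three weeks and were slaughtered on day 44. Back-skin colour (mean of three points) and shank colour (single reading) were measured by Minolta chromameter (D65, 0°) and reported as CIE L*a*b*, h* and C*, averaged over ten birds (5 male, 5 female).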
# [2] = Carotenoid ester content in plasma, back skin and abdominal fat of broilers (HPLC); type: in vivo, broiler chickens (Ross 308, Ross 508)
# Method in brief: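 Ross 308/508 broilers, raised on low-carotenoid basal diet (<2 mg xanthophylls/kg) to day 15 or 22, then fed pigment-supplemented diet for three weeks; plasma sampled day 42, back skin and abdominal fat pooled per group at slaughter on day 44. Carotenoid esters quantified by normal-phase HPLC (0.5% acetone in n-hexane) calibrated with all-E ethyl β-apo-8′-carotenoate; Z-isomers corrected by factor 1.4.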
# [3] = trial MC-11/99, 13.33 mg/kg feed
# [4] = average over doses, in relation to the controls (CAROPHYLL Yellow) of the same trial, Table 3
# [5] = trial MC-11/99, 8.88 mg/kg feed
compound,measurement,setting,value
"CC1=C(/C=C/C(C)=C/C=C/C(C)=C/C=C/C=C(C)/C=C/C=C(\C)C(=O)OC(C)C)C(C)(C)CCC1 [compound (17), isopropyl beta-apo-8′-carotenoate]",Shanks Chroma C*ab % of Controls,"[1]; average over doses, Table 5",115%
same,Shanks Color Hue h*ab % of Controls,"[1]; average over doses, Table 5",99%
same,Skin Chroma C*ab % of Controls,"[1]; average over doses, Table 5",113%
same,Skin Color Hue h*ab % of Controls,"[1]; average over doses, Table 5",102%
same,Shanks Chroma C*ab % of Controls,[1]; [3],97%
same,Shanks Chroma C*ab Value,[1]; [3],70
same,Shanks Color Hue h*ab % of Controls,[1]; [3],99%
same,Shanks Color Hue h*ab Value,[1]; [3],84
same,Shanks Visual Classification,[1]; [3],(+)
same,Skin Chroma C*ab % of Controls,[1]; [3],116%
same,Skin Chroma C*ab Value,[1]; [3],29
same,Skin Color Hue h*ab % of Controls,[1]; [3],105%
same,Skin Color Hue h*ab Value,[1]; [3],77
same,Skin Visual Classification,[1]; [3],(+)
same,Shanks Chroma C*ab % of Controls,"[1]; trial MC-11/99, 20 mg/kg feed",125%
same,Shanks Chroma C*ab Value,"[1]; trial MC-11/99, 20 mg/kg feed",59
same,Shanks Color Hue h*ab % of Controls,"[1]; trial MC-11/99, 20 mg/kg feed",103%
same,Shanks Color Hue h*ab Value,"[1]; trial MC-11/99, 20 mg/kg feed",87
same,Shanks Visual Classification,"[1]; trial MC-11/99, 20 mg/kg feed",+
same,Skin Chroma C*ab % of Controls,"[1]; trial MC-11/99, 20 mg/kg feed",106%
same,Skin Chroma C*ab Value,"[1]; trial MC-11/99, 20 mg/kg feed",33
same,Skin Color Hue h*ab % of Controls,"[1]; trial MC-11/99, 20 mg/kg feed",100%
same,Skin Color Hue h*ab Value,"[1]; trial MC-11/99, 20 mg/kg feed",78
same,Skin Visual Classification,"[1]; trial MC-11/99, 20 mg/kg feed",+
same,Shanks Chroma C*ab % of Controls,"[1]; trial MC-11/99, 30 mg/kg feed",108%
same,Shanks Chroma C*ab Value,"[1]; trial MC-11/99, 30 mg/kg feed",65
same,Shanks Color Hue h*ab % of Controls,"[1]; trial MC-11/99, 30 mg/kg feed",97%
same,Shanks Color Hue h*ab Value,"[1]; trial MC-11/99, 30 mg/kg feed",83
same,Shanks Visual Classification,"[1]; trial MC-11/99, 30 mg/kg feed",+
same,Skin Chroma C*ab % of Controls,"[1]; trial MC-11/99, 30 mg/kg feed",119%
same,Skin Chroma C*ab Value,"[1]; trial MC-11/99, 30 mg/kg feed",40
same,Skin Color Hue h*ab % of Controls,"[1]; trial MC-11/99, 30 mg/kg feed",102%
same,Skin Color Hue h*ab Value,"[1]; trial MC-11/99, 30 mg/kg feed",79
same,Skin Visual Classification,"[1]; trial MC-11/99, 30 mg/kg feed",+
same,Shanks Chroma C*ab % of Controls,"[1]; trial MC-11/99, 45 mg/kg feed",108%
same,Shanks Chroma C*ab Value,"[1]; trial MC-11/99, 45 mg/kg feed",71
same,Shanks Color Hue h*ab % of Controls,"[1]; trial MC-11/99, 45 mg/kg feed",101%
same,Shanks Color Hue h*ab Value,"[1]; trial MC-11/99, 45 mg/kg feed",84
same,Shanks Visual Classification,"[1]; trial MC-11/99, 45 mg/kg feed",++(o)
same,Skin Chroma C*ab % of Controls,"[1]; trial MC-11/99, 45 mg/kg feed",105%
same,Skin Chroma C*ab Value,"[1]; trial MC-11/99, 45 mg/kg feed",44
same,Skin Color Hue h*ab % of Controls,"[1]; trial MC-11/99, 45 mg/kg feed",103%
same,Skin Color Hue h*ab Value,"[1]; trial MC-11/99, 45 mg/kg feed",79
same,Skin Visual Classification,"[1]; trial MC-11/99, 45 mg/kg feed",++
same,Shanks Chroma C*ab % of Controls,"[1]; trial MC-24/98, 30 mg/kg feed",137%
same,Shanks Chroma C*ab Value,"[1]; trial MC-24/98, 30 mg/kg feed",71
same,Shanks Color Hue h*ab % of Controls,"[1]; trial MC-24/98, 30 mg/kg feed",93%
same,Shanks Color Hue h*ab Value,"[1]; trial MC-24/98, 30 mg/kg feed",80
same,Shanks Visual Classification,"[1]; trial MC-24/98, 30 mg/kg feed",+
same,Skin Chroma C*ab % of Controls,"[1]; trial MC-24/98, 30 mg/kg feed",119%
same,Skin Chroma C*ab Value,"[1]; trial MC-24/98, 30 mg/kg feed",39
same,Skin Color Hue h*ab % of Controls,"[1]; trial MC-24/98, 30 mg/kg feed",102%
same,Skin Color Hue h*ab Value,"[1]; trial MC-24/98, 30 mg/kg feed",82
same,Skin Visual Classification,"[1]; trial MC-24/98, 30 mg/kg feed",+
same,chroma C*a*b* values in the skin and in the shanks,[1]; versus the control,substantially enhanced
same,color hue h*a*b* in the skin and in the shanks,[1]; versus the control,not significantly changed
same,"effectiveness in terms of concentration in the skin, and color intensity (chroma C*a*b*) in the skin and shanks",[1]; versus the control,significantly more effective
same,Analytical Content as Equivalent of Ethyl β-apo-8′-carotenoate Fat %,[2]; [4],88%
same,Analytical Content as Equivalent of Ethyl β-apo-8′-carotenoate Plasma %,[2]; [4],129%
same,Analytical Content as Equivalent of Ethyl β-apo-8′-carotenoate Skin %,[2]; [4],134%
same,"concentrations determined as equivalents of the ethyl β-apo-8′-carotenoate, in the skin",[2]; in comparison to the other 12 tested carotenoid esters,substantially higher
same,Analytical Content as Equivalent of Ethyl β-apo-8′-carotenoate Fat,"[2]; trial MC-02/99, 10 mg/kg feed",1.8 mg/kg
same,Analytical Content as Equivalent of Ethyl β-apo-8′-carotenoate Plasma,"[2]; trial MC-02/99, 10 mg/kg feed",6.3 mg/kg
same,Analytical Content as Equivalent of Ethyl β-apo-8′-carotenoate Skin,"[2]; trial MC-02/99, 10 mg/kg feed",2.0 mg/kg
same,Analytical Content as Equivalent of Ethyl β-apo-8′-carotenoate Fat,"[2]; trial MC-02/99, 20 mg/kg feed",3.3 mg/kg
same,Analytical Content as Equivalent of Ethyl β-apo-8′-carotenoate Plasma,"[2]; trial MC-02/99, 20 mg/kg feed",13.4 mg/kg
same,Analytical Content as Equivalent of Ethyl β-apo-8′-carotenoate Skin,"[2]; trial MC-02/99, 20 mg/kg feed",4.1 mg/kg
same,Analytical Content as Equivalent of Ethyl β-apo-8′-carotenoate Fat,[2]; [5],1.2 mg/kg
same,Analytical Content as Equivalent of Ethyl β-apo-8′-carotenoate Plasma,[2]; [5],6.0 mg/kg
same,Analytical Content as Equivalent of Ethyl β-apo-8′-carotenoate Skin,[2]; [5],1.6 mg/kg
same,Analytical Content as Equivalent of Ethyl β-apo-8′-carotenoate Fat,[2]; [3],1.9 mg/kg
same,Analytical Content as Equivalent of Ethyl β-apo-8′-carotenoate Plasma,[2]; [3],8.6 mg/kg
same,Analytical Content as Equivalent of Ethyl β-apo-8′-carotenoate Skin,[2]; [3],2.6 mg/kg
same,Analytical Content as Equivalent of Ethyl β-apo-8′-carotenoate Fat,"[2]; trial MC-11/99, 20 mg/kg feed",2.9 mg/kg
same,Analytical Content as Equivalent of Ethyl β-apo-8′-carotenoate Plasma,"[2]; trial MC-11/99, 20 mg/kg feed",13.3 mg/kg
same,Analytical Content as Equivalent of Ethyl β-apo-8′-carotenoate Skin,"[2]; trial MC-11/99, 20 mg/kg feed",3.7 mg/kg
same,Analytical Content as Equivalent of Ethyl β-apo-8′-carotenoate Fat,"[2]; trial MC-11/99, 30 mg/kg feed",3.4 mg/kg
same,Analytical Content as Equivalent of Ethyl β-apo-8′-carotenoate Plasma,"[2]; trial MC-11/99, 30 mg/kg feed",18.3 mg/kg
same,Analytical Content as Equivalent of Ethyl β-apo-8′-carotenoate Skin,"[2]; trial MC-11/99, 30 mg/kg feed",6.1 mg/kg
same,Analytical Content as Equivalent of Ethyl β-apo-8′-carotenoate Fat,"[2]; trial MC-11/99, 45 mg/kg feed",6.4 mg/kg
same,Analytical Content as Equivalent of Ethyl β-apo-8′-carotenoate Plasma,"[2]; trial MC-11/99, 45 mg/kg feed",30.6 mg/kg
same,Analytical Content as Equivalent of Ethyl β-apo-8′-carotenoate Skin,"[2]; trial MC-11/99, 45 mg/kg feed",9.0 mg/kg
same,Analytical Content as Equivalent of Ethyl β-apo-8′-carotenoate Fat,"[2]; trial MC-24/98, 15 mg/kg feed",2.3 mg/kg
same,Analytical Content as Equivalent of Ethyl β-apo-8′-carotenoate Plasma,"[2]; trial MC-24/98, 15 mg/kg feed",10.0 mg/kg
same,Analytical Content as Equivalent of Ethyl β-apo-8′-carotenoate Skin,"[2]; trial MC-24/98, 15 mg/kg feed",2.5 mg/kg
same,Analytical Content as Equivalent of Ethyl β-apo-8′-carotenoate Fat,"[2]; trial MC-24/98, 30 mg/kg feed",4.5 mg/kg
same,Analytical Content as Equivalent of Ethyl β-apo-8′-carotenoate Plasma,"[2]; trial MC-24/98, 30 mg/kg feed",19.9 mg/kg
same,Analytical Content as Equivalent of Ethyl β-apo-8′-carotenoate Skin,"[2]; trial MC-24/98, 30 mg/kg feed",5.6 mg/kg
